The target of one assay is T1, p38α (Homo sapiens, UniProt Q16539).
T1 construct: p38 MAP Kinases are recombinant human full-length proteins with an amino-terminal GST fusion; GST (N); purchased Upstate Biotechnology Inc; host or cells: E. coli
As to the kind of experiment: p38 MAP Kinase assay: inhibition of ATF2 phosphorylation, ELISA. Type of assay: biochemical. The following applies: for IC50: ATF2 phosphorylation, read-out: [ENZ] P38 ALPHA, IC50, ELISA; for inhibition at 10 µM: substrate ATF2, read-out: [ENZ] P38 ALPHA, PCT INH, ELISA (10 uM;ATF2) (Percent). The method, boiled down:
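In vitro phosphorylation of ATF2 at Thr69 by recombinant human GST-p38 MAP kinase, read by anti-phospho-ATF2 ELISA at 450 nm. Enzyme and compound pre-incubated 15 min at RT, then 30 min reaction at 37 °C with 40 μM ATP and 1.25 μM ATF2; buffer with or without 1% HSA (Method II or I).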
On the technique in general: ELISA stands for enzyme-linked immunosorbent assay.

Assay [1] has as its system TNFα release from THP-1 cells. As to the kind of experiment: Inhibition of TNFα release from LPS-stimulated THP-1 cells, ELISA. Type of assay: cell-based. The note with it: Homo sapiens, read-out: [CELL] THP-1, IC50, TNF ALPHA, ELISA. The method, boiled down: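 TNFα released into supernatant after 18 h of 10 μg/ml LPS stimulation was quantified by ELISA and IC50 taken as 50% reduction by non-linear regression. THP-1 cells (10^6/ml; medium with 10% FBS, serum-free or 1% HSA) saw compound for 30 min at 37 °C beforehand; final DMSO ≤0.5%.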

Read-outs that look alike come from different tables or passages of the source. A value given as a limit tells only on which side of the number the result lay.

T1 sequence (Q16539 whole entry, the tested form may be a part): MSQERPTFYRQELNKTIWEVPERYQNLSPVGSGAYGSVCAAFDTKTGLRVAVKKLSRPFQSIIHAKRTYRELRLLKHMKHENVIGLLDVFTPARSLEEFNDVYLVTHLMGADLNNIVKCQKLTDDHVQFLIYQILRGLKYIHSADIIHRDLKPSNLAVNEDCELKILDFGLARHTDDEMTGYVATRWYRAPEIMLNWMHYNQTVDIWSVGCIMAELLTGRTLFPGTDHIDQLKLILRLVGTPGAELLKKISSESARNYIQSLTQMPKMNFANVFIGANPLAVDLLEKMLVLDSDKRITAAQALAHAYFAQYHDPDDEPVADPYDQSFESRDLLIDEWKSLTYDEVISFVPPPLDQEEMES

What is called IC50 is the midpoint of a concentration-inhibition curve. Take `CCOC(=O)N1CCN(c2nccc(Oc3ccc(NC(=O)c4cc(F)cc(N5CCOCC5)c4)c4ccccc34)n2)CC1` [Compound B329, Ethyl-4-[4-({4-[(3-fluoro-5-morpholin-4-ylbenzoyl)amino]-1-naphthyl}oxy)pyrimidin-2-yl]piperazine-1-carboxylate]: the IC50 on p38α was 10.5 nM; in assay [1] (THP-1, THP-1 cells), > 1000 nM.

On to `CC(=O)N1CCN(c2ccc(NC(=O)c3cc(F)cc(N4CCC(C)CC4)c3)c3ccccc23)CC1` [Compound B196], for which the half-inhibitory concentration (IC50) is 3190 nM at p38α and > 10000 nM in assay [1] (THP-1, THP-1 cells).

As to `O=C(Nc1ccc(Oc2ccnc(N3CCC(CO)CC3)n2)c2ccccc12)c1cc(F)cc(N2CCOCC2)c1` [Compound B359], the IC50 on p38α came out at 4.2 nM; in assay [1] (THP-1, THP-1 cells), 104 nM.

Regarding `COc1ccc(-c2cccc(C(=O)Nc3ccc(OCCN4CCOCC4)c4ccccc34)c2)cc1` [Compound B284], the IC50 at p38α was > 10000 nM; in assay [1] (THP-1, THP-1 cells), > 10000 nM.

For the compound `COc1cccc(-c2cccc(C(=O)Nc3ccc(OCCN4CCOCC4)c4ccccc34)c2)c1OC` [Compound B292], the IC50 on p38α was > 10000 nM; in assay [1] (THP-1, THP-1 cells) it was > 10000 nM.

As to `O=C(Nc1ccc(OCCN2CCC(O)CC2)c2ccccc12)c1cc(F)cc(N2CCCCC2)c1` [Compound B158, 3-Fluoro-N-{4-[2-(4-hydroxypiperidin-1-yl)-ethoxy]-naphthalen-1-yl}-5-piperidin-1-yl-benzamide], at p38α, the inhibition at 10 µM came to 72% and the IC50 was 2670 nM. Further, in assay [1] (THP-1, THP-1 cells), the IC50 was > 10000 nM.

With `N#Cc1cccc(-c2cccc(C(=O)Nc3ccc(OCCN4CCOCC4)c4ccccc34)c2)c1` [Compound B110], the inhibition at 10 µM at p38α amounted to 61%. The IC50 was > 1000 nM at p38α and 6430 nM in assay [1] (THP-1, THP-1 cells).

Regarding `O=C(Nc1ccc(OCCN2CCOCC2)c2ccccc12)c1cccc(-c2cccc(F)c2F)c1` [Compound B288], the concentration for half-maximal inhibition (IC50) is 2720 nM at p38α and 10100 nM in assay [1] (THP-1, THP-1 cells).

As to `CCOc1ccc(Cl)cc1-c1cccc(C(=O)Nc2ccc(OCCN3CCOCC3)c3ccccc23)c1` [Compound B301], the concentration for half-maximal inhibition (IC50) on p38α is > 10000 nM; in assay [1] (THP-1, THP-1 cells) it was > 10000 nM.

`CC(C)Nc1nccc(Oc2ccc(NC(=O)c3cc(F)cc(N4CCCCC4)c3)c3ccccc23)n1` [Compound B396, 3-Fluoro-N-(4-{[2-(isopropylamino)pyrimidin-4-yl]oxy}-1-naphthyl)-5-piperidin-1-ylbenzamide]: the IC50 was 6 nM on p38α and 201 nM in assay [1] (THP-1, THP-1 cells).

Take `CC1CCN(c2cc(F)cc(C(=O)Nc3ccc(Oc4ccnc(N5CCOCC5)n4)c4ccccc34)c2)CC1` [Compound B265, 3-Fluoro-5-(4-methylpiperidin-1-yl)-N-{4-[(2-morpholin-4-ylpyrimidin-4-yl)oxy]-1-naphthyl}benzamide]: the concentration for half-maximal inhibition (IC50) is 5060 nM on p38α and 765 nM in assay [1] (THP-1, THP-1 cells).

Regarding `O=C1CCN(c2cc(F)cc(C(=O)Nc3ccc(OCCN4CCOCC4)c4ccccc34)c2)CC1` [Compound B198, 3-Fluoro-N-[4-(2-morpholin-4-yl-ethoxy)-naphthalen-1-yl]-5-(4-oxo-piperidin-1-yl)-benzamide], the IC50 at p38α worked out at 1770 nM; in assay [1] (THP-1, THP-1 cells), 8500 nM.

In the case of `CN1CCC(Nc2nccc(Oc3ccc(NC(=O)c4cc(F)cc(N5CCCCC5)c4)c4ccccc34)n2)CC1` [Compound B409, 3-Fluoro-N-[4-({2-[(1-methylpiperidin-4-yl)amino]pyrimidin-4-yl}oxy)-1-naphthyl]-5-piperidin-1-ylbenzamide], the IC50 came to 1.8 nM on p38α and 68.7 nM in assay [1] (THP-1, THP-1 cells).

As for `O=C(Nc1ccc(Oc2ccnc(N3CCC(CO)CC3)n2)c2ccccc12)c1cc(F)cc(N2CCCCC2)c1` [Compound B415, 3-Fluoro-N-[4-({2-[4-(hydroxymethyl)piperidin-1-yl]pyrimidin-4-yl}oxy)-1-naphthyl]-5-piperidin-1-ylbenzamide], the IC50 came to 6.1 nM on p38α and 162 nM in assay [1] (THP-1, THP-1 cells).

As for `O=C(Nc1ccc(OCCN2CCOCC2)c2ccccc12)c1cn(Cc2ccccc2)c2ccccc12` [Compound B49], the IC50 (on p38α; in assay [1] (THP-1 cells)) was > 10000 nM each time.

On to `Cc1ccc(-c2cccc(C(=O)Nc3ccc(OCCN4CCOCC4)c4ccccc34)c2)cc1C` [Compound B276], for which the half-maximal inhibitory concentration (IC50) on p38α was > 10000 nM; in assay [1] (THP-1, THP-1 cells), > 10000 nM.

Regarding `O=C(Nc1ccc(OCCN2CCOCC2)c2ccccc12)c1cc(F)cc(N2Cc3ccccc3C2)c1` [Compound B212], the half-maximal inhibitory concentration (IC50) on p38α is > 10000 nM; in assay [1] (THP-1, THP-1 cells) it was > 10000 nM.

On to `CC1CCC(Oc2cc(F)cc(C(=O)Nc3ccc(OCCN4CCOCC4)c4ccccc34)c2)CC1` (stereo not shown) [Compound B234, 3-Fluoro-5-[(4-methylcyclohexyl)oxy]-N-[4-(2-morpholin-4-ylethoxy)-1-naphthyl]benzamide], for which the IC50 is 1050 nM on p38α and 3190 nM in assay [1] (THP-1, THP-1 cells).

Regarding `CC1CCN(c2cc(F)cc(C(=O)Nc3ccc(Oc4ccnc(NC5CCCC5)n4)c4ccccc34)c2)CC1` [Compound B266, N-(4-{[2-(Cyclopentylamino)pyrimidin-4-yl]oxy}-1-naphthyl)-3-fluoro-5-(4-methylpiperidin-1-yl)benzamide], the concentration for half-maximal inhibition (IC50) turned out to be 363 nM on p38α and 256 nM in assay [1] (THP-1, THP-1 cells).

For `O=C(Nc1ccc(OCCN2CCOCC2)c2ccccc12)c1cccc(-c2cccc(C(F)(F)F)c2)c1` [Compound B88, 3′-Trifluoromethyl-biphenyl-3-carboxylic acid [4-(2-morpholin-4-yl-ethoxy)-naphthalen-1-yl]-amide], on p38α, the inhibition at 10 µM came to 59%. The IC50 came to 1850 nM on p38α and 3600 nM in assay [1] (THP-1, THP-1 cells).

Take `C[C@@H]1CN(c2cccc(C(=O)Nc3ccc(OCCN4CCOCC4)c4ccccc34)c2)C[C@H](C)O1` [Compound B31]: the IC50 is 10000 nM at p38α and > 10000 nM in assay [1] (THP-1, THP-1 cells).

Take `C[C@@H]1CN(CCOc2ccc(NC(=O)c3cccc(N4CCOCC4)c3)c3ccccc23)C[C@H](C)O1` [Compound B19]: the inhibition at 10 µM at p38α is 65%. Also, the IC50 at p38α is 8960 nM; in assay [1] (THP-1, THP-1 cells), > 10000 nM.

As to `O=C(Nc1ccc(OCCN2CCOCC2)c2ccccc12)c1cc(N2CCOCC2)nc(N2CCCC2)n1` [Compound B47], the IC50 on p38α is > 10000 nM; in assay [1] (THP-1, THP-1 cells) it was 842 nM.

As for `O=C(Nc1ccc(Oc2ccnc(N3CCC(O)C3)n2)c2ccccc12)c1cc(F)cc(N2CCCCC2)c1` (stereo not shown) [Compound B393], the IC50 at p38α was 16.8 nM; in assay [1] (THP-1, THP-1 cells), 715 nM.

On to `O=C(Nc1ccc(OCCN2CCOCC2)c2ccccc12)c1cccc(N2CCC3CCCCC3C2)n1` (stereo not shown) [Compound B71], for which the IC50 is > 10000 nM at p38α and > 10000 nM in assay [1] (THP-1, THP-1 cells).

Turning to `CC1CCCN1c1nccc(Oc2ccc(NC(=O)c3cc(F)cc(N4CCOCC4)c3)c3ccccc23)n1` (stereo not shown) [Compound B355], the IC50 on p38α came out at 68.7 nM; in assay [1] (THP-1, THP-1 cells), 878 nM.

For the compound `C[C@@H]1CN(CCOc2ccc(NC(=O)c3ccc(CN4CCOCC4)cc3)c3ccccc23)C[C@H](C)O1` [Compound B5], the IC50 on p38α was > 10000 nM; in assay [1] (THP-1, THP-1 cells) it was > 10000 nM.

`CC1CCCN(c2cc(C(=O)Nc3ccc(OCCN4CCOCC4)c4ccccc34)ccn2)C1` (stereo not shown) [Compound B126, 3-Methyl-3,4,5,6-tetrahydro-2 H-[1,2′]bipyridinyl-4′-carboxylic acid [4-(2-morpholin-4-yl-ethoxy)-naphthalen-1-yl]-amide]: the inhibition at 10 µM on p38α turned out to be 85%. For the same compound, the half-maximal inhibitory concentration (IC50) is 451 nM at p38α and 934 nM in assay [1] (THP-1, THP-1 cells).

Take `O=C(Nc1ccc(OCCN2CCOCC2)c2ccccc12)c1cc(N2CCOCC2)ccc1Cl` [Compound B41]: the IC50 on p38α was > 10000 nM; in assay [1] (THP-1, THP-1 cells), > 10000 nM.

`CSc1cccc(-c2cccc(C(=O)Nc3ccc(OCCN4CCOCC4)c4ccccc34)c2)c1` [Compound B298]: the IC50 is 7370 nM on p38α and > 10000 nM in assay [1] (THP-1, THP-1 cells).

In the case of `CC(=O)N1CCN(CCOc2ccc(NC(=O)c3cc(F)cc(N4CCCCC4)c3)c3ccccc23)CC1` [Compound B167, N-{4-[2-(4-Acetyl-piperazin-1-yl)-ethoxy]-naphthalen-1-yl}-3-fluoro-5-piperidin-1-yl-benzamide], the IC50 is 851 nM at p38α and > 10000 nM in assay [1] (THP-1, THP-1 cells).

Consider `Cc1nc(C(=O)Nc2ccc(OCCN3CCOCC3)c3ccccc23)cc(N2CCOCC2)n1` [Compound B46], for which the IC50 at p38α is > 10000 nM; in assay [1] (THP-1, THP-1 cells), 685 nM.

Regarding `O=C(Nc1ccc(OCCN2CCOCC2)c2ccccc12)c1ccc2ccccc2c1` [Compound B85], the inhibition at 10 µM at p38α is 66%. Further, the IC50 is 3180 nM on p38α and 4030 nM in assay [1] (THP-1, THP-1 cells).

As to `O=C(Nc1ccc(OCCN2CCOCC2)c2ccccc12)c1ccccc1` [Compound B26], the IC50 on p38α was 21800 nM; in assay [1] (THP-1, THP-1 cells) it was > 10000 nM.

On to `CC(C)(C)CNc1cc(F)cc(C(=O)Nc2ccc(OCCN3CCOCC3)c3ccccc23)c1` [Compound B209, 3-[(2,2-Dimethylpropyl)amino]-5-fluoro-N-[4-(2-morpholin-4-ylethoxy)-1-naphthyl]benzamide], for which the IC50 at p38α is 513 nM; in assay [1] (THP-1, THP-1 cells), > 10000 nM.

On to `Cc1cc(C(=O)Nc2ccc(OCCN3CCOCC3)c3ccccc23)cc(N2CCCC(C)C2)n1` (stereo not shown) [Compound B153, 3,6′-Dimethyl-3,4,5,6-tetrahydro-2H-[1,2′]bipyridinyl-4′-carboxylic acid [4-(2-morpholin-4-yl-ethoxy)-naphthalen-1-yl]-amide], for which, on p38α, the inhibition at 10 µM stood at 88% and the IC50 was found to be 622 nM. The IC50 in assay [1] (THP-1, THP-1 cells) came to 1030 nM.

Values taken from patent US7829560B2, “1,4-disubstituted naphthalenes as inhibitors of P38 MAP kinase” (Arqule, Inc., priority 2004, dated 2010).
